Key:
Assay in all cases: TEVC electrophysiology, Xenopus oocytes
Format in all cases: cell-based
GluN1/2C = GluN1/2C (Rattus norvegicus, UniProt P35439+Q00961)
GluN1/2D = GluN1/2D (Rattus norvegicus, UniProt P35439+Q62645)
GluN1/2B = GluN1/2B (Rattus norvegicus, UniProt P35439+Q00960)
GluN1/2A = GluN1/2A (Rattus norvegicus, UniProt P35439)

| EC50 (GluN1/2C) [µM] | EC50 (GluN1/2D) [µM] | EC50 (GluN1/2B) [µM] | EC50 (GluN1/2A) [µM] | SMILES |
| --- | --- | --- | --- | --- |
| > 300 | > 300 | > 300 | – | N[C@@H](COCc1ccccc1)C(=O)O [8b] |
| > 300 | > 300 | – | – | CCCCSC[C@H](N)C(=O)O [10a, S-Butyl L-cysteine] |
| > 300 | > 300 | > 300 | – | CCCCSC[C@@H](N)C(=O)O [10b, S-Butyl D-cysteine] |
| 87 | > 300 | – | – | N[C@@H](CSCc1ccccc1)C(=O)O [11a, S-benzyl substituted L-cysteine] |
| > 300 | > 300 | – | – | N[C@H](CSCc1ccccc1)C(=O)O [11b, S-benzylated D-cysteine] |
| 206 | > 300 | > 300 | > 300 | CCCCC(=O)NC[C@@H](N)C(=O)O [13a, pentanamido analogue 13a] |
| > 300 | > 300 | – | – | CCCCC(=O)NC[C@H](N)C(=O)O [13b] |

— publication PMC5559341 (ACS chemical neuroscience, 2017)
